Data reported in patent US8912121B2, “Herbicidal compositions comprising 4-amino-3-chloro-5-fluoro-6-(4-chloro-2-fluoro-3-methoxyphenyl)pyridine-2-carboxylic acid or a derivative thereof and certain PS II inhibitors” (Dow Agrosciences LLC, priority 2012, dated 2014).

Tested on: IPOHE (Ipomoea hederacea, ivyleaf morningglory)
Assay: Pre-emergence soil-applied mixtures, greenhouse
Format: in vivo, Ipomoea hederacea (L.) Jacq.
Text: Seeds or nutlets of the desired test plant species were planted in a soil matrix prepared by mixing a loam soil (32 percent silt, 23 percent clay, and 45 percent sand, with a pH of about 6.5 and an organic matter content of about 1.9 percent) and calcareous grit in an 80 to 20 ratio. The soil matrix was contained in plastic pots with a volume of 1 quart and a surface area of 83.6 square centimeters (cm^2).
Treatments consisted of the benzyl ester of 4-amino-3-chloro-5-fluoro-6-(4-chloro-2-fluoro-3-methoxy-phenyl)pyridine-2-carboxylic acid (compound A) formulated as an SC (suspension concentrate) and various herbicidal components alone and in combination. Forms of compound A were applied on an acid equivalent basis.
Other herbicidal components were applied on an acid equivalent or active ingredient basis and included the PSII-inhibiting herbicides, atrazine formulated as Atrazine® 90WDG, metribuzin formulated as Metribuzin 75DF, simazine formulated as Princep Caliber 90, tebuthiuron formulated as Spike 80DF, cyanazine (technical grade material), hexazinone (technical grade material), linuron (technical grade material), terbuthylazine (technical grade material), and diuron formulated as Diuron 4L.
Treatment requirements were calculated based upon the rates being tested, the concentration of active ingredient or acid equivalent in the formulation, and a 12 mL application volume at a rate of 187 L/ha.
For treatments comprised of formulated compounds, measured amounts of compounds were placed individually in 25 mL glass vials and diluted in a volume of 1.25% (v/v) Agri-Dex® crop oil concentrate (COC) to obtain 12× stock solutions. […] Application solutions were prepared by adding an appropriate amount of each stock solution (e.g., 1 mL) and diluted to the appropriate final concentrations with the addition of 10 mL of an aqueous mixture of 1.25% (v/v) COC so that the final spray solutions contained 1.25% (v/v) COC.
For treatments comprised of technical compounds, weighed amounts can be placed individually in 25 mL glass vials and dissolved in a volume of 97:3 (v/v) acetone/DMSO to obtain 12× stock solutions. […]
For treatments comprised of formulated and technical compounds, weighed amounts of the technical materials can be placed individually in 25 mL glass vials and dissolved in a volume of 97:3 (v/v) acetone/DMSO to obtain 12× stock solutions, and measured amounts of the formulated compounds can be placed individually in 25 mL glass vials and diluted in a volume of 1.5% (v/v) COC or water to obtain 12× stock solutions. […]

COc1c(Cl)ccc(-c2nc(C(=O)OCc3ccccc3)c(Cl)c(N)c2F)c1F [Compound A Benzyl Ester, benzyl ester of 4-amino-3-chloro-5-fluoro-6-(4-chloro-2-fluoro-3-methoxy-phenyl)pyridine-2-carboxylic acid]
Visual Weed Control (%) - 33 DAA IPOHE Obs (Compound A Benzyl Ester 16 g ae/ha): 0% | Visual Weed Control (%) - 33 DAA IPOHE Obs (Compound A Benzyl Ester 32 g ae/ha): 5%
